Laboratory results as given in patent publication US6806230B1, “Pyrimidine derivatives and herbicides containing them” (Kumiai Chemical Industry Co., Ltd., priority 1999, dated 2004).

Key:
Type in all cases: in vivo
[1] = system: barnyard grass (Ec); experiment: Test Example 2: herbicidal effects by upland soil treatment; design: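 0-5 growth inhibition grade; 5 = over 90%; 4 = 70-90%; 3 = 50-70%; 2 = 30-50%; 1 = 10-30%; 0 = under 10%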; conditions: dose 100 g active ingredient per 10 ares, examined on the 21st day after treatment
Experimental: In a 80 cm^2 plastic pot, upland soil was filled, and seeds of barnyard grass (Ec) and green foxtail (Se) were sown and covered with soil. A wettable powder prepared in accordance with Formulation Example 1 was diluted with water and uniformly applied to the soil surface by means of a small size spray at a rate of 100 l per 10 ares, so that the dose of the active ingredient would be 100 g per 10 ares. Thereafter, cultivation was carried out in a green house, and on the 21st day after the treatment, the herbicidal effects were examined in accordance with the standards as identified in Table 44.

[2] = system: monochoria (Mo); experiment: Test Example 4: selectivity for a crop plant by flooded paddy field treatment; design: scale not given here; conditions: for Mo (herbicidal effect index): monochoria, dose 25 gai/10a, 21st day after treatment, index per Table 44; for Mo (herbicidal effects, index): dose 25 g active ingredient per 10 ares, examined on the 21st day after treatment
Experimental: (§1) In a 100 cm^2 plastic pot, a paddy field soil was filled and paddled. Then, seeds of barnyard grass (Eo) and monochoria (Mo) were sown, and rice (Or) of second leaf stage was transplanted, and water was introduced to a depth of 3 cm. Next day, a wettable powder prepared in accordance with Formulation Example 1 was diluted with water and dropwise applied to the water surface. The dose was 25 g of the active ingredient per 10 ares. Thereafter, cultivation was carried out in a green house, and on the 21st day after the treatment, the herbicidal effects were examined in accordance with the standards of Table 44.

[3] = system: barnyard grass (Eo); experiment: as above; design: scale not given here; conditions: for Eo (herbicidal effect index): barnyard grass, dose 25 gai/10a, 21st day after treatment, index per Table 44; for Eo (herbicidal effects, index): dose 25 g active ingredient per 10 ares, examined on the 21st day after treatment
Experimental: as §1

[4] = system: rice (Or); experiment: as above; design: scale not given here; conditions: rice transplanted at second leaf stage; for Or (herbicidal effect index on crop): dose 25 gai/10a, 21st day after treatment, index per Table 44; for Or (effect on crop plant rice, index): dose 25 g active ingredient per 10 ares, examined on the 21st day after treatment
Experimental: as §1

[5] = system: barnyard grass (Eo); experiment: Test Example 1: herbicidal effects by flooded paddy field treatment; design: herbicidal effects, Eo (barnyard grass):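 0-5 growth inhibition grade; 5 = over 90%; 4 = 70-90%; 3 = 50-70%; 2 = 30-50%; 1 = 10-30%; 0 = under 10%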; conditions: for herbicidal effects, Eo (barnyard grass): dose 100 g active ingredient per 10 ares, examined on the 21st day after treatment, standards of Table 44; for Herbicidal effect index, Eo: dose 100 gai/10a, examined on 21st day after treatment, index 0-5 per Table 44;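 for Herbicidal effect index, Eo: 0-5 growth inhibition grade; 5 = over 90%; 4 = 70-90%; 3 = 50-70%; 2 = 30-50%; 1 = 10-30%; 0 = under 10%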
Experimental: (§2) In a 100 cm^2 plastic pot, paddy field soil was filled and paddled. Then, seeds of barnyard grass (Eo) and monochoria (Mo) were sown, and water was introduced to a depth of 3 cm. Next day, a wettable powder prepared in accordance with Formulation Example 1 was diluted with water and dropwise applied to the water surface. The dose was 100 g of the active ingredient per 10 ares. Thereafter, cultivation was carried out in a green house, and on the 21st day after the treatment, the herbicidal effects were examined in accordance with the standards as identified in Table 44.

[6] = system: monochoria (Mo); experiment: as above; design: herbicidal effects, Mo (monochoria):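 0-5 growth inhibition grade; 5 = over 90%; 4 = 70-90%; 3 = 50-70%; 2 = 30-50%; 1 = 10-30%; 0 = under 10%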; conditions: for herbicidal effects, Mo (monochoria): dose 100 g active ingredient per 10 ares, examined on the 21st day after treatment, standards of Table 44; for Herbicidal effect index, Mo: dose 100 gai/10a, examined on 21st day after treatment, index 0-5 per Table 44
Experimental: as §2
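Throughout, for Herbicidal effect index, Mo: 0-5 growth inhibition grade; 5 = over 90%; 4 = 70-90%; 3 = 50-70%; 2 = 30-50%; 1 = 10-30%; 0 = under 10%.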

| SMILES | Ec (herbicidal effects, index) [1] | Mo (herbicidal effect index) [2] | Eo (herbicidal effect index) [3] | Or (herbicidal effect index on crop) [4] | herbicidal effects, Eo (barnyard grass) [5] | herbicidal effects, Mo (monochoria) [6] | Mo (herbicidal effects, index) [2] | Eo (herbicidal effects, index) [3] | Or (effect on crop plant rice, index) [4] | Herbicidal effect index, Eo [5] | Herbicidal effect index, Mo [6] |
| --- | --- | --- | --- | --- | --- | --- | --- | --- | --- | --- | --- |
| CN(C(=O)Cc1cccs1)C(c1cncnc1C(F)(F)F)C1(C)CC1 (racemic) [2-55] | 5 | 5 | 5 | 1 | 5 | 5 |  |  |  |  |  |
| CC(c1cncnc1C(C)(C)C)N(C)C(=O)Cc1ccccc1 (racemic) [1-188] |  | 5 | 5 | 0 | 5 | 5 |  |  |  |  |  |
| CSc1ccc(CC(=O)N(C)C(c2cncnc2C(F)(F)F)C(C)C)cc1 (racemic) [Compound 1-44] |  |  |  |  |  |  | 5 | 5 | 0 | 5 | 5 |
| COC(=O)c1ncncc1C(C(C)C)N(C)C(=O)C(C)c1ccc(Cl)cc1 (single isomer, unassigned) [1-593] |  | 4 | 5 | 0 | 5 | 5 |  |  |  |  |  |
| CN(C(=O)Cc1ccc(Cl)s1)C(c1cncnc1C(F)(F)F)C(C)(C)C (racemic) [2-42] |  | 5 | 5 | 0 | 5 | 5 |  |  |  |  |  |
| CC(C)C(c1cncnc1C(F)(F)F)N(C)C(=O)Cc1ccc(C(C)(C)C)cc1 (racemic) [Compound 1-43] |  |  |  |  |  |  | 5 | 5 | 1 | 5 | 5 |
| Cc1ccc(CC(=O)N(C)C(c2cncnc2-c2ccccc2)C(C)C)cc1 (racemic) [1-325] |  | 5 | 5 | 1 | 5 | 5 |  |  |  |  |  |
| COc1ccc(C(c2cncnc2C(F)(F)F)N(C)C(=O)Cc2ccc(C)cc2)cc1 (racemic) [1-487] |  | 5 | 5 | 1 | 5 | 5 |  |  |  |  |  |
| CC(C)C(c1cncnc1C(F)(F)F)N(C)C(=O)COc1ccccc1Cl (racemic) [Compound 1-132] |  | 5 | 5 | 0 | 5 | 5 |  |  |  |  |  |
| CC(C)C(c1cncnc1C(F)(F)F)N(C)C(=O)Cc1ccc(S(C)(=O)=O)cc1 (racemic) [Compound 1-104] |  | 5 | 5 | 1 |  |  |  |  |  | 5 | 5 |
| CC(C)C(c1cncnc1C(F)(F)F)N(C)C(=O)Cc1cccc(C(F)(F)F)c1 (racemic) [Compound 1-39] |  |  |  |  |  |  | 5 | 5 | 0 | 5 | 5 |
| CC(C)C(c1cncnc1C(F)(F)F)N(C)C(=O)COc1nc2ccccc2s1 (racemic) [2-48] |  | 5 | 5 | 1 | 5 | 5 |  |  |  |  |  |
| CC(C)C(c1cncnc1-c1ccccc1)N(C)C(=O)Cc1ccc(Cl)cc1 (racemic) [1-324] |  | 5 | 5 | 1 | 5 | 5 |  |  |  |  |  |
| CC(C)C(c1cncnc1C(F)(F)F)N(C)C(=O)CSc1ccc(Cl)cc1 (racemic) [1-183] |  | 5 | 5 | 0 | 5 | 5 |  |  |  |  |  |
| Cc1ccc(C(C)(C)C(=O)N(C)C(c2cncnc2C(F)(F)F)C(C)C)cc1 (racemic) [1-175] |  | 5 | 5 | 0 | 5 | 5 |  |  |  |  |  |
| Cc1ccc(CC(=O)N(C)C(c2cncnc2C(F)(F)Cl)C2CC2)cc1 (racemic) [Compound 1-93] |  |  |  |  |  |  | 5 | 5 | 0 | 5 | 5 |
| CC(C)C(c1cncnc1C(F)(F)F)N(C)C(=O)C=Cc1ccc(Cl)cc1 (racemic) [Compound 1-86] |  |  |  |  |  |  | 5 | 5 | 0 | 5 | 5 |
| O=C(Cc1ccc(C(F)(F)F)cc1)NC(c1cncnc1C(F)(F)Cl)C1CC1 (racemic) [Compound 1-4] |  |  |  |  |  |  | 4 | 5 | 1 | 5 | 5 |
| C#CCN(C(=O)Cc1ccc(Cl)cc1F)C(c1cncnc1C(F)(F)F)C(C)C (racemic) [1-615] |  | 5 | 5 | 1 | 5 | 5 |  |  |  |  |  |
| COc1ccc(SC(=O)N(C)C(c2cncnc2C(F)(F)Cl)C(C)C)cc1 (racemic) [Compound 1-18] |  |  |  |  |  |  | 4 | 5 | 1 | 5 | 5 |
| COc1ccccc1C(c1cncnc1C(F)(F)F)N(C)C(=O)Cc1ccc(C)cc1 (racemic) [1-491] |  | 5 | 5 | 0 | 5 | 5 |  |  |  |  |  |
| CC(c1cncnc1C(C)(C)C)N(C)C(=O)Cc1ccc(F)cc1 (racemic) [1-189] |  | 5 | 5 | 0 | 5 | 5 |  |  |  |  |  |
| Cc1ccc(CC(=O)N(C2CC2)C(c2cncnc2C(F)(F)F)C(C)C)cc1 (racemic) [Compound 1-82] |  |  |  |  |  |  | 5 | 5 | 0 | 5 | 5 |
